Measured values as given in patent publication US7217776B1, “pH-sensitive methacrylic copolymer gels and the production thereof” (Iowa State University Research Foundation, priority 2003, dated 2007).

Test system: NIH/3T3 mouse fibroblasts
Assay: Cytotoxicity elution test
Type: cell-based
Conditions: 24 hours incubation; 3 mg/L, 0.3 mg/L and 0.03 mg/L
Method: Elution tests were performed on one sample of the pentablock material to assess the cytotoxic properties of the pentablock copolymers. Approximately 30 mg of the polymers to be tested were dissolved in 100 ml of low-glucose Dulbecco's modified eagle medium (DMEM, Sigma) with 10% fetal bovine serum (FBS, Sigma), 10 μg/ml insulin (Sigma), 10 units/ml penicillin/streptomycin (Sigma), and 100 μg/ml L-ascorbic acid (Sigma). This solution was diluted to achieve the desired polymer concentration for all tests.
NIH/3T3 mouse fibroblasts were grown in polystyrene flasks until reaching confluence at 150 cells/mm. The growth media was removed from the flasks and replaced with one of the following: DMEM (negative control), DMEM with phenol (positive control), DMEM with the pentablock material. The concentrations of the pentablock material and phenol were 3 mg/L, 0.3 mg/L and 0.03 mg/L.
After 24 hours of incubation in a humidified incubator with 5% CO2 at 37° C. the samples were removed and the media was replaced with Kamovsky's fixative (2.5% glutaraldehyde, 2.0% paraformaldehyde, 0.1M sodium cacodylate) for 12 hours. The samples were then stained with a 20% crystal violet dye (CVD) solution in ethanol for 6 hours followed by dehydration with ethanol. […]

SMILES: Oc1ccccc1 [phenol]
- cytotoxic response (cell density, morphology, adherence relative to controls): result expected for a cytotoxic material
